{"source": "patent US7265087B1", "about": "“Exendin improves β-cell response in subjects with impaired glucose tolerance” (priority 1998, dated 2007)", "key": {"[1]": {"system": "subjects with impaired glucose tolerance (IGT)", "assay": "12 hour oscillatory glucose infusion with constant GLP-1 infusion, subjects with IGT", "assay_type": "in vivo, human", "parameters": "Mean glucose 12 hour GLP-1 / Mean ISR 12 hour GLP-1: unit not given beside the values", "method": "(§1) The studies described herein were performed in 10 subjects who were divided into two groups on the basis of their plasma glucose response to an oral glucose tolerance test using the criteria of the World Health Organization to define the degree of glucose tolerance. Five subjects had IGT, and five subjects had NIDDM. The gender, age, body mass index (BMI), basal levels of fasting glucose, 2 hour glucose, fasting insulin, and HBA1c for each subject are presented in Table 2. Diabetic subjects were older than those with IGT, but the groups were matched for by BMI. Mean fasting glucose levels and glycosylated hemoglobin concentrations were lower in the IGT group compared to subjects with NIDDM.\n(§2) The coefficient of variation of this method was <2%. […] The average intraassay coefficient of variation was 5%. […] Diabetes 27, Suppl 1: 170-177, 1978.\n(§3) All results are expressed as mean±SEM. Data analysis was performed using the Statistical Analysis System (SAS Version 6 Edition, for Personal Computers, SAS Institute, Inc., Cary, N.C.). The significance of differences within the individual induced by GLP-1 infusion was determined using paired t tests. Differences were considered to be significant if P<0.05.\n(§4) Standard kinetic parameters for C-peptide clearance adjusted for age, sex and body surface area were utilized, Van Cauter E, Mestrez, F, Sturis J, Polonsky K S. Estimation of insulin secretion rates from C-peptide levels: comparison of individual and standard kinetic parameters for C-peptide clearance. Diabetes 41:368-377, 1992. These parameters were used to derive, in each 15 minute interval between blood sampling, the ISR from the plasma C-peptide concentrations by deconvolution as previously described.\n(§5) Each subject was studied on three separate occasions. All studies were performed after a 12-hour overnight fast beginning at 0700 unless otherwise stated with subjects in the recumbent position. An intravenous catheter was placed in each forearm, one for blood sampling and one for administration of glucose and GLP-1 as needed. In all experiments, the arm containing the sampling catheter was maintained in a heating blanket to ensure arterialization of the venous sample. In the following examples, the GLP-1 was administered to the subjects in the GLP-1 (7-36) amide form.\n(§6) In order to determine whether the β-cells were able to detect and respond to oscillations of glucose, glucose was infused in an oscillatory pattern with a small volume of saline for 12 hours.\n(§7) To determine whether insulin secretion was entrained by glucose in individual subjects, the temporal profiles of insulin secretion were analyzed by spectral analysis. Spectral power analysis was used to evaluate the presence of tight coupling between oscillations in glucose and oscillations in ISR. This method evaluated the regularity of insulin secretory oscillations at a predetermined frequency. Spectral peaks correspond to the dominant periodicity and height of the peaks correspond to spectral power. Each spectrum was normalized assuming the total variance of each series to be 100% and was expressed as the normalized spectral power."}, "subjects with NIDDM": {"system": "subjects with NIDDM", "assay": "12 hour oscillatory glucose infusion with constant GLP-1 infusion, subjects with NIDDM", "assay_type": "in vivo, human", "parameters": "Mean glucose 12 hour GLP-1: unit not given beside the values", "method": "as §1, §2, §3, §4\nThe diabetic subjects were treated with diet alone with the exception of one subject D07, who was previously treated with an oral hypoglycemic agent that was discontinued 4 weeks prior to the study. None of the diabetic patients had ever received insulin. All subjects were placed on a weight maintenance diet containing at least 200 g of carbohydrate per day for two weeks before the study.\nas §5, §6, §7"}, "pancreas": {"system": "pancreas", "conditions": "background statement; cited from earlier work"}}, "note": "Values joined by “and” are separate entries in the source; they are usually repeats but may differ in a detail not shown here. Equal entries are not always repeated. No end group written: not given here.", "data": [{"compound": "CC[C@H](C)[C@H](NC(=O)[C@H](Cc1ccccc1)NC(=O)[C@H](CCC(=O)O)NC(=O)[C@H](CCCCN)NC(=O)[C@H](C)NC(=O)[C@H](C)NC(=O)[C@H](CCC(N)=O)NC(=O)CNC(=O)[C@H](CCC(=O)O)NC(=O)[C@H](CC(C)C)NC(=O)[C@H](Cc1ccc(O)cc1)NC(=O)[C@H](CO)NC(=O)[C@H](CO)NC(=O)[C@@H](NC(=O)[C@H](CC(=O)O)NC(=O)[C@H](CO)NC(=O)[C@@H](NC(=O)[C@H](Cc1ccccc1)NC(=O)[C@@H](NC(=O)CNC(=O)[C@H](CCC(=O)O)NC(=O)[C@H](C)NC(=O)[C@@H](N)Cc1c[nH]cn1)[C@@H](C)O)[C@@H](C)O)C(C)C)C(=O)N[C@@H](C)C(=O)N[C@@H](Cc1c[nH]c2ccccc12)C(=O)N[C@@H](CC(C)C)C(=O)N[C@H](C(=O)N[C@@H](CCCCN)C(=O)NCC(=O)N[C@@H](CCCNC(=N)N)C(N)=O)C(C)C", "note": "[GLP-1, GLP-1 (7-36) amide]", "values": [{"measurement": "Mean ISR 12 hour GLP-1", "setting": "[1]; IGT group, Mean ± SEM, n=5, GLP-1 0.4 pmol/kg/min for 12 hours", "value": "654.2 ± 152.1"}, {"measurement": "Mean glucose 12 hour GLP-1", "setting": "[1]; IGT group, Mean ± SEM, n=5, GLP-1 0.4 pmol/kg/min for 12 hours, P<0.05 vs saline", "value": "6.35 ± 0.08"}, {"measurement": "mean ISRs during GLP-1 infusion compared to saline infusion", "setting": "[1]; IGT subjects", "value": "not significantly different"}, {"measurement": "average drop of mean glucose levels during GLP-1 infusion compared to saline", "setting": "[1]; IGT subjects, P<0.02, mean±SEM", "value": "2.4 ± 0.6", "unit": "mM"}, {"measurement": "mean normalized spectral power for glucose during GLP-1 infusion", "setting": "[1]; IGT subjects, P=0.19 vs saline, mean±SEM", "value": "13.2±1.6"}, {"measurement": "increase of mean insulin levels during GLP-1 infusion compared to saline", "setting": "[1]; IGT subjects, P=0.32, mean±SEM", "value": "102 ± 90", "unit": "pmol/L"}, {"measurement": "Mean glucagon levels during GLP-1 infusion", "setting": "[1]; IGT subjects, P=0.94 vs saline, mean±SEM", "value": "39.3 ± 5.4", "unit": "pg/mL"}, {"measurement": "Spectral power for ISR during GLP-1 infusion", "setting": "[1]; IGT subjects, normalized, P<0.006 vs saline, mean±SEM", "value": "8.9±1.7"}, {"measurement": "periodicity of the dominant spectral peak in ISR during GLP-1 infusion", "setting": "[1]; individual IGT subject, period of exogenous glucose infusion 144 minutes", "value": 144, "unit": "min"}, {"measurement": "Mean ISR 12 hour GLP-1", "setting": "[1]; individual IGT subjects D01-D05, GLP-1 0.4 pmol/kg/min for 12 hours with oscillatory glucose infusion", "value": "465.9 and 1042.7 and 365.9 and 1005.8 and 390.9"}, {"measurement": "Mean glucose 12 hour GLP-1", "setting": "[1]; individual IGT subjects D01-D05, GLP-1 0.4 pmol/kg/min i.v. for 12 hours with oscillatory glucose infusion", "value": "6.06 and 6.46 and 6.36 and 6.37 and 6.48"}, {"measurement": "Spectral power during GLP-1 infusion, individual subject", "setting": "[1]; one subject with IGT (D02, FIGS. 6A and 6B), 0.6 during saline", "value": 8.9}, {"measurement": "pattern of insulin secretory responses to glucose during GLP-1 infusion", "setting": "[1]; representative subjects with IGT, D01 and D02 (FIGS. 3B and 3D)", "value": "improved"}, {"measurement": "Mean ISR 12 hour GLP-1", "setting": "subjects with NIDDM; NIDDM group, Mean ± SEM, n=5, GLP-1 0.4 pmol/kg/min for 12 hours", "value": "508 ± 53.4"}, {"measurement": "Mean glucose 12 hour GLP-1", "setting": "subjects with NIDDM; NIDDM group, Mean ± SEM, n=5, GLP-1 0.4 pmol/kg/min for 12 hours, P<0.05 vs saline", "value": "9.40 ± 0.9"}, {"measurement": "mean ISRs during GLP-1 infusion compared to saline infusion", "setting": "subjects with NIDDM; NIDDM subjects", "value": "not significantly different"}, {"measurement": "mean normalized spectral power for glucose during GLP-1 infusion", "setting": "subjects with NIDDM; NIDDM subjects, P=0.18 vs saline, mean±SEM", "value": "9.8±0.7"}, {"measurement": "Mean glucagon levels during GLP-1 infusion", "setting": "subjects with NIDDM; NIDDM subjects, P=0.4 vs saline, mean±SEM", "value": "46.4 ± 3.2", "unit": "pg/mL"}, {"measurement": "increase of mean insulin levels during GLP-1 infusion compared to saline", "setting": "subjects with NIDDM; NIDDM subjects, P=0.56, mean±SEM", "value": "7 ± 12", "unit": "pmol/L"}, {"measurement": "Spectral power for ISR during GLP-1 infusion", "setting": "subjects with NIDDM; NIDDM subjects, normalized, P=0.6 vs saline, mean±SEM", "value": "1.5±0.8"}, {"measurement": "average drop of mean glucose levels during GLP-1 infusion compared to saline", "setting": "subjects with NIDDM; diabetics (NIDDM), P<0.0005, mean±SEM", "value": "5.2 ± 0.5", "unit": "mM"}, {"measurement": "Mean ISR 12 hour GLP-1", "setting": "subjects with NIDDM; individual NIDDM subjects D06-D10, GLP-1 0.4 pmol/kg/min for 12 hours with oscillatory glucose infusion", "value": "477.7 and 715.4 and 487.7 and 412.5 and 448.9"}, {"measurement": "Mean glucose 12 hour GLP-1", "setting": "subjects with NIDDM; individual NIDDM subjects D06-D10, GLP-1 0.4 pmol/kg/min i.v. for 12 hours with oscillatory glucose infusion", "value": "11.53 and 10.51 and 6.24 and 8.84 and 9.90"}, {"measurement": "Spectral power during GLP-1 infusion, individual subject", "setting": "subjects with NIDDM; one subject with NIDDM (D07, FIGS. 6C and 6D), 0.28 during saline", "value": "1.51 and 1.5"}, {"measurement": "pattern of insulin secretory responses to glucose during GLP-1 infusion", "setting": "subjects with NIDDM; two subjects with NIDDM, D07 and D09 (FIGS. 4B and 4D)", "value": "not improved"}]}, {"compound": "SEQ ID NO:5 (EGTFTSDVSSYLEGQAAKEFIAWLVKGRG; mammalian)", "values": [{"measurement": "production or release of insulin from the pancreas", "setting": "pancreas", "value": "do not stimulate the production or release of insulin from the pancreas"}]}, {"compound": "SEQ ID NO:6 (EGTFTSDVSSYLEGQAAKEFIAWLVKGR-NH2)", "values": [{"measurement": "production or release of insulin from the pancreas", "setting": "pancreas", "value": "do not stimulate the production or release of insulin from the pancreas"}]}]}
